The record followed here is paper PMC10187093, “Synthesis, in silico modelling, and in vitro biological evaluation of substituted pyrazole derivatives as potential anti-skin cancer, anti-tyrosinase, and antioxidant agents” (Journal of Enzyme Inhibition and Medicinal Chemistry, 2023).

The subject of one test is SCC-12. Briefly: MTT antiproliferative/cytotoxicity assay, SCC-12. The conditions noted are these: for IC50: non-melanoma, MTT, 48 h, read-out: IC50 SCC-12; for selectivity index (SI) SCC-12: IC50 HaCaT divided by IC50 SCC-12. It is filed as cell-based, human. The protocol:
(§1) Human-derived GFP-expressing melanoma A375 and epidermoid carcinoma A431 cell lines were purchased from Angio-Proteomie (Boston, MA). Human melanoma carcinoma SK-MEL-28 and human immortalised keratinocytes (HaCaT) cell lines were acquired from American Type Culture Collection (ATCC; Manassas, VA). […] The growth media of incubated cells were changed every 2–3 days until they attained 70–80% confluence, after which they were sub-cultured for experiments and re-passaging. DMSO was used as the vehicle to prepare a 10 mM stock solution of the test compounds.
(§2) Stock solutions (10 mM) were prepared by dissolving each compound to be screened in DMSO.

For a further test, the system named is GFP-A431. The test is described as follows: MTT antiproliferative/cytotoxicity assay, A431. In kind it is cell-based, human. The conditions noted are these: for IC50: non-melanoma, MTT, 48 h, read-out: IC50 GFP-A431; for selectivity index (SI) A431: IC50 HaCaT divided by IC50 A431. The protocol:
as §1, §2

The next test concerns the target T1, mushroom tyrosinase (Agaricus bisporus, UniProt C7FF04).
T1 construct: purchased Sigma-Aldrich Chemical Company (St. Louis, MO) and MP Biomedicals (Irvine, CA)
Briefly: In vitro mushroom tyrosinase inhibition assay. It is filed as biochemical. The conditions noted are these: for IC50: > 500 = not biologically relevant. The protocol: The anti-tyrosinase potential of all the synthesised derivatives was determined by an enzymatic tyrosinase inhibition assay based on their ability to inhibit the substrate, L-tyrosine, from binding to the tyrosinase enzyme. […] Test samples were dissolved in DMSO at a concentration of 10 mM and then diluted to different concentrations with phosphate buffer (0.1 M, pH 6.8). Each well contained 40 µL of the sample with 80 µL of phosphate buffer solution (0.1 M, pH 6.8), 40 µL of tyrosinase enzyme (100 units/mL), and 40 µL L-tyrosine (2.5 mM). The mixture was incubated for 30 min at room temperature, and absorbance was measured at 490 nm. Each sample was accompanied by a sample blank containing all components except tyrosinase. […] The percentage of tyrosinase inhibition was calculated as follows: ((ΔAcontrol – ΔAsample)/ΔAcontrol) × 100. IC50 values denoted the sample concentration required to inhibit 50% tyrosinase activity (Table S1).

The nature of test [1]: DPPH free radical scavenging assay. The conditions noted are these: for Percent Scavenging (DPPH): 1 mM; for IC50: N.A. = No Activity, > 1000 = not biologically relevant, read-out: IC50 Value, DPPH antioxidant activity (Table S4). The protocol: An initial screen was done of all 25 derivatives at a concentration of 1 mM. […] Methanol was used as the diluent, and 100 µL of DPPH (200 µM; Sigma-Aldrich, St. Louis, MO) was added to each well. […] The scavenging capacity (SC) was calculated as SC% = ((ΔAcontrol – ΔAsample)/ΔAcontrol) × 100%, where ΔAcontrol was the absorbance of the reagent blank, and ΔAsample was the absorbance of the test samples. The control contained all reagents except the compounds, and all tests were performed in triplicate. Quercetin served as a positive control. The DPPH methanolic solution (1 mL) mixed with DMSO (5 µL) served as a negative control.
In general terms: DPPH is a stable violet radical that fades when it is reduced.

In another test the test system is SK-MEL-28. The test is described as follows: MTT antiproliferative/cytotoxicity assay, SK-MEL-28. In kind it is cell-based, human. The conditions noted are these: melanoma, MTT, 48 h, read-out: IC50 SKMEL-28. The protocol:
(§3) Human-derived GFP-expressing melanoma A375 and epidermoid carcinoma A431 cell lines were purchased from Angio-Proteomie (Boston, MA). Human melanoma carcinoma SK-MEL-28 and human immortalised keratinocytes (HaCaT) cell lines were acquired from American Type Culture Collection (ATCC; Manassas, VA). Human cutaneous SCC cell line SCC-12[192] was generously provided by Dr. James G. Rheinwald to Dr. Tatiana Efimova. Except SK-MEL-28, which was cultured in an RPMI-1640 medium supplemented with 5% FBS, all other human immortalised cell lines were grown and maintained in DMEM containing varying percentages of FBS; 5% FBS for A431, SCC-12, and HaCaT lines, and 10% FBS for A375. All culture media were routinely supplemented with 1% PEST 100X (100 U/mL penicillin, 100 μg/mL streptomycin), and cells were cultured in incubators maintained at 37 °C under an atmosphere of 95% humidity, 20% O2, and 5% CO2. The growth media of incubated cells were changed every 2–3 days until they attained 70–80% confluence, after which they were sub-cultured for experiments and re-passaging. DMSO was used as the vehicle to prepare a 10 mM stock solution of the test compounds.
(§4) Stock solutions (10 mM) were prepared by dissolving each compound to be screened in DMSO. From these stock solutions, escalating concentrations were prepared using the corresponding cell growth media as a diluent, and the cells (65–75% confluent) were treated with (0–40 µM) or without the drug in sext- to octuplicate and incubated for 48 h. All treatment protocols and controls were prepared as previously described.
(§5) The potency and cytotoxicity of the test compounds against two cutaneous melanoma (A375 and SK-MEL-28) and two non-melanoma (A431 and SCC-12) SC cell lines in addition to a control immortalised normal human epidermal keratinocytes (HaCaT) cell line were assessed by MTT assay as previously described.

The test system of another test is HaCaT. Briefly: MTT cytotoxicity assay, noncancerous HaCaT keratinocytes. In kind it is cell-based, human. The conditions noted are these: Homo sapiens, HaCaT; control noncancerous keratinocytes, MTT, 48 h; read-out: IC50 HaCaT. The protocol: as §3, §4, §5
For orientation: Formazan colour is commonly taken as a measure of viable cells.

In the next test the test system is A375. Briefly: MTT antiproliferative/cytotoxicity assay, A375. In kind it is cell-based, human. The conditions noted are these: melanoma, MTT, 48 h, read-out: IC50 A375. The protocol: as §3, §4, §5
Where [2] appears, read: 500 µM, single-concentration screen, read-out: % Inhibition of tyrosinase.
Setting [3] is: read-out: IC50 Value, mushroom tyrosinase inhibition (Table S1).

Where two headings read alike, the source gives them in different places.

T1 sequence (C7FF04 1-392 limits assumed): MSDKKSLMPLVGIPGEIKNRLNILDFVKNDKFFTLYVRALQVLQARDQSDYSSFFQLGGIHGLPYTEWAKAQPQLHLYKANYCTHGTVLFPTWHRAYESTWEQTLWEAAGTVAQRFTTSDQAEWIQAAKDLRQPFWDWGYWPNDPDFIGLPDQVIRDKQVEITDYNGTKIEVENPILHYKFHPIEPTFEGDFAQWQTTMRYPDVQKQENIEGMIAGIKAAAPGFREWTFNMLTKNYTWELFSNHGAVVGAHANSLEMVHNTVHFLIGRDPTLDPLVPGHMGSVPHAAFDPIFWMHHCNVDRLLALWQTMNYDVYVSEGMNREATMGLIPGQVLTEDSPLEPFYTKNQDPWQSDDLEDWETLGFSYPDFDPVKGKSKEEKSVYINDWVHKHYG

As a reminder, the IC50 is the concentration that inhibits the measured activity by half. On to `O=C1CC(c2ccccc2)=NN1c1ccccc1` [P21], for which the 50% inhibitory concentration (IC50) in the test with SCC-12 (Homo sapiens, SCC12) stood at 37.8 ± 3.2 µM; in the test on GFP-A431 (Homo sapiens, A-431), 58.6 ± 2.3 µM; at mushroom tyrosinase (IC50 Value, mushroom tyrosinase inhibition (Table S1)), 295 µM; in test [1], 354 µM; in the test on SK-MEL-28 (Homo sapiens, SK-MEL-28), 42.7 ± 4 µM; with HaCaT it was 50.1 ± 6.5 µM. Also, the IC50 in the test on A375 (Homo sapiens, A-375, 48 h) amounted to 67.8 ± 2.3 µM. Further, the inhibition at 500 µM on mushroom tyrosinase (read-out: % Inhibition of tyrosinase, 500 µM, single-concentration screen) turned out to be 88.9 ± 0.4%. Further, in test [1], the “Percent Scavenging (DPPH)” value is listed as 73.25%.

Consider `O=C1CC(c2ccc(Br)cc2)=NN1c1ccc(Br)cc1` [P22], for which the 50% inhibitory concentration (IC50) is 19 µM in the test with SCC-12 (Homo sapiens, SCC12, 48 h); 18.7 ± 1.4 µM in the test with SCC-12; 13 µM in the test with GFP-A431 (Homo sapiens, A-431, 48 h); 12.6 ± 1.6 µM in the test with GFP-A431; greater than 500 µM at mushroom tyrosinase (setting [3]); 276 µM in test [1]. The IC50 in the test with SK-MEL-28 (Homo sapiens, SK-MEL-28, 48 h) was 31 µM; with SK-MEL-28, 31.3 ± 2.4 µM; with HaCaT, 47.6 ± 1.6 µM; in the test with A375 (Homo sapiens, A-375, 48 h), 29 µM; with A375 it was 28.7 ± 1.2 µM. Besides, the “selectivity index (SI) SCC-12” value in the test with SCC-12 came out at 2.6. For the same molecule, the “selectivity index (SI) A431” value in the test with GFP-A431 is 3.8. The inhibition at 500 µM at mushroom tyrosinase (setting [2]) was 46.9%. For the same molecule, the “Percent Scavenging (DPPH)” value in test [1] is reported as 77.86%.

As to `O=C1CC(c2ccc(Br)cc2)=NN1c1ccc(C(F)(F)F)cc1` [P23], the IC50 in the test with SCC-12 (Homo sapiens, SCC12, 48 h) was 21.7 ± 1.9 µM; in the test on GFP-A431 (Homo sapiens, A-431, 48 h) it was 23.9 ± 1 µM; at mushroom tyrosinase (setting [3]), greater than 500 µM; in test [1], 196 µM; with SK-MEL-28 (Homo sapiens, SK-MEL-28, 48 h) it was 27.4 ± 2.3 µM; in the test with HaCaT, 40.5 ± 1.5 µM. Moreover, the IC50 in the test with A375 (Homo sapiens, A-375, 48 h) came out at 31.2 ± 1.5 µM. For the same molecule, the “selectivity index (SI) SCC-12” value in the test on SCC-12 is on record as 1.9. Further, in the test on GFP-A431, the “selectivity index (SI) A431” value was found to be 1.7. Moreover, the inhibition at 500 µM at mushroom tyrosinase (setting [2]) turned out to be 37.6%. For the same molecule, the “Percent Scavenging (DPPH)” value in test [1] worked out at 77.61%.

Consider `O=C1CC(c2ccc(Br)cc2)=NN1c1ccccc1` [P24], for which the IC50 in the test with SCC-12 (Homo sapiens, SCC12, 48 h) is 141 ± 3.9 µM; in the test on GFP-A431 (Homo sapiens, A-431, 48 h) it was 18.6 ± 0.9 µM; on mushroom tyrosinase (setting [3]), greater than 500 µM; in test [1], 444 µM; with SK-MEL-28 (Homo sapiens, SK-MEL-28, 48 h) it was 54.1 ± 1.9 µM; in the test with HaCaT it was 60.4 ± 3.2 µM. In the test with A375 (Homo sapiens, A-375, 48 h), the IC50 came to 56.4 ± 1.7 µM. Also, the “selectivity index (SI) SCC-12” value with SCC-12 is 0.4. For the same molecule, the “selectivity index (SI) A431” value in the test with GFP-A431 worked out at 3.3. In addition, on mushroom tyrosinase (setting [2]), the inhibition at 500 µM turned out to be 35.2%. In addition, the “Percent Scavenging (DPPH)” value in test [1] was found to be 75.14%.
